The values that follow come from US20110212080A1, “UREA DERIVATIVES AS ANTIBACTERIAL AGENTS” (priority 2008, published 2011).

The structures appear in SMILES notation.

This experiment deals with T1, LpxC enzyme (Escherichia coli, UniProt P0A725).
T1 sequence (P0A725 1-305): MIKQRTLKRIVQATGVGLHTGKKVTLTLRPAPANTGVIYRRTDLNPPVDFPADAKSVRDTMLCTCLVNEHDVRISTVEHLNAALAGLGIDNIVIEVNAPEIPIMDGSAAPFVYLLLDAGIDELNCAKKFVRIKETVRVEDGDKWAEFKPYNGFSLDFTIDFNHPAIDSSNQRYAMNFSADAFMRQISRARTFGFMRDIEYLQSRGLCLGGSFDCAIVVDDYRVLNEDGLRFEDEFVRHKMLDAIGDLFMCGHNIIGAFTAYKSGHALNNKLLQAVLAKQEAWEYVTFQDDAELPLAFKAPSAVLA
As to the kind of experiment: standard LpxC assay (RapidFire high-throughput mass spectrometry). The experiment is classed as biochemical. To be noted: 1.0 μM UDP-3-O-(R-3-hydroxymyristoyl)-N-acetylglucosamine, 60 minutes at room temperature, 2% DMSO; read-out: E.coli IC50. Here is the method: The standard LpxC assay consists of […] LpxC enzyme, 1.0 μM UDP-3-O-(R-3-hydroxymyristoyl)-N-acetylglucosamine, and test compound, in assay buffer and 2% DMSO. Assay buffer is comprised of 25 mM HEPES, pH 7.3, 150 mM NaCl, 2.0 mM DTT, and 0.01% BSA. The enzyme reaction is carried out in a 96-well assay plate, in a final volume of 102 μL. Solutions of rest compounds are prepared in 100% DMSO. Reaction additions, in order, are (1) 2.0 μL compound solution, (2) 80 μL of assay buffer, (3) 10 μL of 10 μM UDP-3-O-(R-3-hydroxymyristoyl)-N-acetylgucosamine (in assay buffer) and, (4) 10 μL of LpxC enzyme (20 nM in assay buffer) to initiate the reaction. In positive control reactions, addition (1) has 2.0 μL of 100% DMSO (without compound); these reactions are used as the total signal (TSB) value. Reactions are incubated at room temperature for 60 minutes when 10 μL of 1 N HCl is added to stop the reaction. The plate is shaken by hand for 10 seconds to ensure complete quenching. […]
The concentrations of substrate and product in the reaction mixtures are determined with BioTrove's proprietary RapidFire™ high-throughput mass spectrometry (HTMS). […] The mass spectrometry peak areas of the substrate and product are measured to determine the concentration of these analytes. […] Percent inhibition, % I, in test samples is determined from the following equation: […]

For the molecule `C[C@@H](NC(=O)N[C@@H](C(=O)NO)[C@@H](C)O)c1ccc(-n2cccn2)cc1` [Compound 46], the IC50 lay within 5 to 10 µM.

As for `C[C@@H](O)[C@@H](NC(=O)N1CCCC(c2ccc(C#Cc3ccccc3)cc2)C1)C(=O)NO` (some centres unmarked) [Compound 41], the IC50 lay in the range of 0.05 to 0.5 µM.

By IC50 is commonly meant the midpoint of a concentration-inhibition curve.
